15 compounds from patent US20240350643A1, “PROTEIN DEGRADATION AGENT” (SUZHOU KINTOR PHARMACEUTICALS, INC., priority 2021, published 2024) can be followed below.

The subject of one test is HL60 cells. As to the kind of experiment: Anti-proliferation ability of compounds on HL60 cells (CTG). The conditions noted are these: Homo sapiens, HL-60, 72 h, 3 days, CellTiter-Glo, read-out: HL60 cells Proliferation inhibitory activity. Type of test: cell-based, human. The protocol:
II. Activity test 2: Anti-proliferation ability of compounds on HL60 cells: 1 Cell plating
HL60 cells in the logarithmic growth phase were counted and plated evenly in a 96-well transparent bottom white plate at 20000 cells per well and 100 μL per well.
A certain amount of the compounds was weighed and diluted with DMSO to a 10 mM stock solution. The culture mediums corresponding to the cells were taken, and the drugs were diluted to the concentration required by the test, shaken gently and mixed evenly. 50 μl of the gradient dilution of the diluted compound was added to each well of the plated cells, and 50 μL of 0.1% DMSO was added to the control group. The plate was shaken gently, mixed evenly and incubated in a cell culture incubator for 3 days.
• 3.1 The CellTiter-GLo™ (CTG) reagent was taken in advance from the −20° C. refrigerator and equilibrated to room temperature in the dark (white bottle+brown bottle, 1:1 mixing evenly into the brown bottle, for later use). • 3.2 The 96-well plate was taken out and inspected under a microscope for growth situation. • 3.3 The bottom of the 96-well plate was tagged with white paper, and then the plate was wrapped with tin foil paper, shaken at 37° C. at 300 r for 10 min and mixed evenly. • 3.4 50 ul of CTG detection reagent was added to each well, Luminescence signal was detected using a microplate reader, and the inhibition rate was calculated. IC50 values of the compounds were calculated by XLfit software to evaluate the proliferation inhibitory activity on HL60 cells.

The target in the next test is T1, c-Myc protein (Homo sapiens, UniProt P01106).
T1 construct: endogenous in cells; host or cells: HL60 cells
Put plainly: Ability of compounds to degrade c-Myc protein in HL60 cells (ELISA). Type of test: cell-based. Particulars: HL-60, 1 μM compound, 24 h, read-out: HL60 cells Protein degradation rate (1 μM). The protocol:
I Activity test 1: Ability of compounds to degrade c-Myc protein in HL60 cells:
HL60 cells in the exponential growth phase were centrifuged, diluted with fresh culture mediums to 6×10^4 cells/100 μL and plated into a 96-well plate at 100 μL per well.
Preparation of test compounds: the compounds were weighed and diluted with DMSO to a 10 mM stock solution for later use. According to test requirements, drugs were diluted with cell culture mediums, with ten-fold dilutions starting from 10 μM, to achieve 3 concentration gradients: 10 μM, 1 μM and 100 NM; and finally, 1 μL of the drugs (DMSO content: 0.01%) were added to each well. For the blank control group, DMSO was also diluted with cell culture mediums, and finally, 1 μL of the control reagent (DMSO content: 0.01%) was added to each well.
3. Effect of drugs on c-Myc in cells as determined by ELISA
After 24 h of drug action, the culture mediums were removed, and the cells were washed once with ice-cold 1× PBS. PBS was removed, and 100 μL of ice-cold 1× Cell Lysis Buffer plus 1 mM phenylmethylsulfonyl fluoride (PMSF) was added to each well. The plate was incubated on ice for 20 min and centrifuged at 4000 RPM at 4° C. for 10 min for later use.
4. Reagent and antibody preparation in ELISA kit 1× wash buffer • 1). 16 mL of ELISA wash buffer concentrate (25×) was diluted with 384 mL of deionized water or distilled water, labeled as 1× Wash Buffer. • 2). The concentrate and 1× Wash Buffer were stored in the refrigerator. The diluted buffer was used within 14 days.
The cell extraction buffer contains 10 mM Tris (pH 7.4), 100 mM NaCl, 1 mM EDTA, 1 mM EGTA, 1 mM NaF, 20 mM Na4P2O7 2 mM Na3VO4. 1% Triton™ ×-100, 10% glycerol, 0.1% SDS and 0.5% deoxycholate. Immediately before use, PMSF (0.3 M stock solution in DMSO) was added to the buffer to a final concentration of 1 mM.
Standard curve configuration: The standard liquid was diluted using glass or plastic tubes. • 1). Huc-Myc (total) standard liquid (Invitrogen, KH02041) was reconstituted with a standard dilution to 1000 pg/mL. Refer to the standard vial label for instructions. The contents were gently swirled or mixed and then allowed to stand for 10 minutes to ensure complete reconstitution, labeled as 1,000 pg/mL human c-Myc. The standard liquid was used within 1 hour after reconstitution. • 2). 250 μL of standard dilution buffers were added to 7 test tubes respectively labeled 500, 250, 125, 62.5, 31.25, 15,63 and 0 pg/mL. • 3). 250 μL of the 1000 pg/ml standard stock solution was added to the first EP tube to a concentration of 500 pg/mL, vortexed and mixed evenly. 250 μL of the resulting mixture was further pipetted and added to the second EP tube to a concentration of 250 pg/mL. Serial dilutions were performed until the sixth EP tube with a concentration of 15.63 pg/mL. Dilution was not performed on the last EP tube. • 4). The remaining reconstituted standard liquid should be discarded, or aliquoted and frozen at −80° C. for further use. Standards can be frozen and thawed only once without losing immunoreactivity.
1× anti-rabbit IgG HRP solution: 1× anti-rabbit IgG HRP solution was prepared within 15 minutes of use. The anti-rabbit IgG HRP (100×) contained 50% viscous glycerol. To ensure accurate dilutions, the following operations were carried out: 1 For each 8-well test strip used in the test, 10 μl, of the anti-rabbit IgG -IRP (100×) solution was pipetted, wherein the pipette tip was wiped with clean absorbent paper to remove excess solutions, and then the solution was dispensed into a test tube containing 1 mL of HRP diluent and mixed thoroughly. 2. The unused anti-rabbit IgG HRP (100×) was placed in the refrigerator for storage.
50 μL of the standard liquid was added to the appropriate wells and not added to the blank control well. Except for the blank control well, 50 μL of Hu c-Myc (total) detection antibody solution was added to each well and mixed by tapping the side face of the plate. […]

T1 sequence (P01106 whole entry): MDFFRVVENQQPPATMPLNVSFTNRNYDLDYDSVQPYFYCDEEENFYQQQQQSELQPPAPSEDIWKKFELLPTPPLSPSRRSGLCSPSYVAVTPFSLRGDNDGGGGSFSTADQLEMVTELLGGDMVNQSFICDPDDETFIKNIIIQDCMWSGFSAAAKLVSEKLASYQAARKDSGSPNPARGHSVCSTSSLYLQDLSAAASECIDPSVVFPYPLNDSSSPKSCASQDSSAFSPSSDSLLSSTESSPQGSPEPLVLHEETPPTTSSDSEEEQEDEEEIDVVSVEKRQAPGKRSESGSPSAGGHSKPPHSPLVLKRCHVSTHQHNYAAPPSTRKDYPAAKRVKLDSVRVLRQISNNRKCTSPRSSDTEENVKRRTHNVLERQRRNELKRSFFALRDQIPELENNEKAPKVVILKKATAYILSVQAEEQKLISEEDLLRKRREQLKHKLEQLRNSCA

As for `O=C(Cc1ccccc1Cl)NCc1ccc(CNC(=O)c2ccc3c(c2)C(=O)N(C2CCC(=O)NC2=O)C3=O)cc1` (stereo not drawn) [A57], the IC50 in the test with HL60 cells was determined as 214 ± 4.7 nM. The inhibition at 1 µM on c-Myc protein is 60 to 90%.

For `O=C(Cc1cccc(Cl)c1)NCc1ccc(CNC(=O)c2ccc3c(c2)C(=O)N(C2CCC(=O)NC2=O)C3=O)cc1` (stereo not drawn) [A58], in the test on HL60 cells, the IC50 was 285 ± 10.7 nM. Besides, the inhibition at 1 µM at c-Myc protein lay in the range of 60 to 90%.

Consider `O=C(Cc1ccc(Cl)cc1)NCc1ccc(CNC(=O)c2ccc3c(c2)C(=O)N(C2CCC(=O)NC2=O)C3=O)cc1` (stereo not drawn) [A59], for which the IC50 in the test with HL60 cells came out at 173 ± 61.3 nM. The inhibition at 1 µM at c-Myc protein was 60 to 90%.

With `O=C(Cc1cccc(Cl)c1Cl)NCc1ccc(CNC(=O)c2ccc3c(c2)C(=O)N(C2CCC(=O)NC2=O)C3=O)cc1` (stereo not drawn) [A60], the IC50 in the test on HL60 cells came to 48.5 ± 6 nM. Also, the inhibition at 1 µM at c-Myc protein was 10 to 30%.

As to `O=C(CCc1cccc(Cl)c1Cl)NCc1ccc(CNC(=O)c2ccc3c(c2)C(=O)N(C2CCC(=O)NC2=O)C3=O)cc1` (stereo not drawn) [A61], the IC50 in the test on HL60 cells was determined as 108 ± 6.5 nM. The inhibition at 1 µM at c-Myc protein fell in the range of 60 to 90%.

With `O=C(CCc1ccccc1Cl)NCc1ccc(CNC(=O)c2ccc3c(c2)C(=O)N(C2CCC(=O)NC2=O)C3=O)cc1` (stereo not drawn) [A62], the IC50 in the test with HL60 cells turned out to be 320 ± 17.6 nM. In addition, the inhibition at 1 µM on c-Myc protein lay within 60 to 90%.

`COc1ccccc1CCC(=O)NCc1ccc(CNC(=O)c2ccc3c(c2)C(=O)N(C2CCC(=O)NC2=O)C3=O)cc1` (stereo not drawn) [A63]: in the test with HL60 cells, the IC50 was 702 ± 33.8 nM. For the same compound, at c-Myc protein, the inhibition at 1 µM lay within 60 to 90%.

As to `O=C(Cc1cccc(F)c1)NCc1ccc(CNC(=O)c2ccc3c(c2)C(=O)N(C2CCC(=O)NC2=O)C3=O)cc1` (stereo not drawn) [A64], the IC50 in the test on HL60 cells is 2020 nM. For the same compound, the inhibition at 1 µM on c-Myc protein lay in the range of 60 to 90%.

For `O=C(Cc1ccccc1Br)NCc1ccc(CNC(=O)c2ccc3c(c2)C(=O)N(C2CCC(=O)NC2=O)C3=O)cc1` (stereo not drawn) [A65], the IC50 in the test on HL60 cells is 473 ± 93.3 nM. Besides, the inhibition at 1 µM on c-Myc protein lay in the range of 60 to 90%.

As to `N#Cc1ccccc1CC(=O)NCc1ccc(CNC(=O)c2ccc3c(c2)C(=O)N(C2CCC(=O)NC2=O)C3=O)cc1` (stereo not drawn) [A66], the IC50 with HL60 cells came to 1850 ± 1230 nM. For the same compound, the inhibition at 1 µM at c-Myc protein is 60 to 90%.

For the compound `O=C(Cc1ccccc1C(F)(F)F)NCc1ccc(CNC(=O)c2ccc3c(c2)C(=O)N(C2CCC(=O)NC2=O)C3=O)cc1` (stereo not drawn) [A67], in the test on HL60 cells, the IC50 came to 1070 ± 617 nM. Further, the inhibition at 1 µM on c-Myc protein was 60 to 90%.

Take `Cc1ccccc1CC(=O)NCc1ccc(CNC(=O)c2ccc3c(c2)C(=O)N(C2CCC(=O)NC2=O)C3=O)cc1` (stereo not drawn) [A68]: the IC50 with HL60 cells came out at 1000 ± 480 nM. On c-Myc protein, the inhibition at 1 µM lay in the range of 60 to 90%.

`CC(C)(C(=O)NCc1ccc(CNC(=O)c2ccc3c(c2)C(=O)N(C2CCC(=O)NC2=O)C3=O)cc1)c1ccccc1` (stereo not drawn) [A69]: in the test on HL60 cells, the IC50 is 710 ± 40.1 nM. The inhibition at 1 µM on c-Myc protein was 60 to 90%.

Consider `O=C1CCC(N2C(=O)c3ccc(C(=O)NCc4ccc(CNC(=O)C5(c6ccccc6Br)CC5)cc4)cc3C2=O)C(=O)N1` (stereo not drawn) [A70], for which, in the test on HL60 cells, the IC50 was 374 ± 51.1 nM. Moreover, on c-Myc protein, the inhibition at 1 µM was in the range of 60 to 90%.

In the case of `CN(Cc1ccc(CNC(=O)c2ccc3c(c2)C(=O)N(C2CCC(=O)NC2=O)C3=O)cc1)C(=O)Cc1cccc2ccccc12` (stereo not drawn) [A71], in the test on HL60 cells, the IC50 was 24.3 ± 8.5 nM. At c-Myc protein, the inhibition at 1 µM lay in the range of 60 to 90%.
